Assay results reported in patent publication US12029712B2 (Sun Pharmaceutical Industries, Inc., priority 2017, dated 2024).

Columns and labels:
[1] = biological target: T1, human NMDAR subunits GluN1 and GluN2A (Homo sapiens, UniProt Q05586); assay: NMDA receptor activation in automated patch clamp system (ScreenPatch); format: cell-based; conditions: HEK293 cells, 0.003 to 10 μM
T1 construct: expressed in transfected cells; host or cells: HEK293
Procedure: Peak current and steady state current were measured. The activity at the NMDA receptor was indistinguishable for the two compounds.

[2] = Pharmacokinetics of deuterated and non-deuterated D-serine, PO 10 mg/kg; format: in vivo, male Sprague Dawley rats
Procedure: Three rats were used for each group. Blood was collected at the following time points: for IV dosing: pre-dose, 0.05, 0.167, 0.5, 1, 2, 4, 6, 8 and 12 hours post-dose; for PO dosing: pre-dose, 0.25, 0.5, 1, 2, 4, 6, 8 and 12 hours post-dose PO. Urine was collected at pre-dose (minimum 12 hours), 0-6, 6-12 and 12-24 hours. Plasma samples were analyzed and quantified for dosed compound LC-MS/MS.

[3] = Pharmacokinetic profile of Compound 100 versus non-deuterated D-serine, 150 mg/kg PO; format: in vivo, male Sprague-Dawley rats
Source text: (§1) The pharmacokinetic profile of Compound 100 was investigated in male Sprague-Dawley rats compared with that of non-deuterated D-serine. […] Plasma was collected and analyzed for Compound 100 and non-deuterated D-Serine. Additional blood was collected and analyzed for the full clinical chemistry profile.

rats = assay: Nephrotoxicity comparison at doses from 150 mg/kg to 750 mg/kg (dose escalation); format: in vivo; conditions: for BUN / creatinine: doses from 150 mg/kg to 750 mg/kg, PO
[4] = Brain distribution of Compound 100 24 hours after a single 100 mg/kg PO dose; format: in vivo, male Sprague-Dawley rats
Procedure: The distribution profile of Compound 100 was investigated in male Sprague-Dawley rats. […] At 24 hours after dosing, tissues from perfused brain and plasma were collected and analyzed by LC-MS.

Male Sprague-Dawley Rats [5] = assay: Nephrotoxicity dose response of non-deuterated D-serine, 30 to 300 mg/kg PO; format: in vivo; conditions: 24 hr samples, 150 and 300 mg/kg doses, versus control and reference values
Source text: The pharmacokinetic profile of non-deuterated D-serine was investigated in male Sprague-Dawley rats. […] Plasma was collected and analyzed for the non-deuterated D-serine. Additional blood was collected and analyzed for the full clinical chemistry profile.

Male Sprague-Dawley Rats [6] = assay: Nephrotoxicity of Compound 100 and non-deuterated D-serine, 150 mg/kg PO (BUN, creatinine, GGT); format: in vivo
Source text: as §1

[7] = dose escalation 150 mg/kg to 750 mg/kg

| SMILES | activity at the NMDA receptor (peak current and steady state current) [1] | Tmax compared with non-deuterated D-serine [2] | Cmax and AUCinf compared with non-deuterated D-serine [3] | course of concentration in hippocampus ([3]; at 24 hr) | course of concentrations in plasma and cortex ([3]; within 24 hr) | exposure as measured by AUC and Cmax, compared with non-deuterated D-serine (rats; [7]) | gross signs of nephrotoxicity (rats; [7]) | BUN (rats) | creatinine (rats) | concentration in the cortex compared with plasma or other brain locations [4] | creatine level (Male Sprague-Dawley Rats [5]) | gamma glutamyl transferase (GGT) level (Male Sprague-Dawley Rats [5]) | urea nitrogen level (Male Sprague-Dawley Rats [5]) | blood urea nitrogen (BUN) level (Male Sprague-Dawley Rats [6]; 8 hr and 24 hr serum samples) | creatinine level (Male Sprague-Dawley Rats [6]; 24 hr serum samples) | gamma glutamyl transferase (GGT) level (Male Sprague-Dawley Rats [6]; 24 hr serum samples) |
| --- | --- | --- | --- | --- | --- | --- | --- | --- | --- | --- | --- | --- | --- | --- | --- | --- |
| [2H][C@@](N)(CO)C(=O)O [Compound 100, (2R)-2-amino-2-deutero-3-hydroxy-propanoic acid] | indistinguishable | similar | similar | remained steady | decreased | greater | not Compound 100 | minimal changes | minimal changes | greater | – | – | – | – | – | – |
| N[C@H](CO)C(=O)O [Non-deuterated D-Serine, D-serine] | indistinguishable | – | – | – | – | – | only observed in rats receiving non-deuterated D-serine | increasingly elevated levels | increasingly elevated levels | – | Elevated | Elevated | Elevated | Elevated | Elevated | Elevated |
